# Results from patent US20220009922A1, “NOVEL UREA 6,7-DIHYDRO-4H-PYRAZOLO[4,3-C]PYRIDINES ACTIVE AGAINST THE HEPATITIS B VIRUS (HBV)” (AiCuris GmbH & Co. KG, priority 2018, published 2022).
# Tested on: HepAD38 cells
# Experiment: Cell viability assay (AlamarBlue) in HepAD38 cells
# Settings: HepAD38 cells in the presence of 0.3 μg/ml tetracycline, six days incubation
row,SMILES,CC50
1,"CC1Cc2n[nH]c(C(=O)N3CC(F)(F)CC34CC4)c2CN1C(=O)Nc1ccc(F)c(Cl)c1 (single isomer, unassigned) [Example 9, N-(3-chloro-4-fluorophenyl)-3-{6,6-difluoro-4-azaspiro[2.4]heptane-4-carbonyl}-6-methyl-2H,4H,5H,6H,7H-pyrazolo[4,3-c]pyridine-5-carboxamide]",> 10 µM

# Tested on: HBV
# Experiment: not given
# Settings: Hepatitis B virus, HePAD38, 144 h, read-out: Cell Activity (EC50)
row,SMILES,EC50
1,"CC1Cc2n[nH]c(C(=O)N3CC(F)(F)CC34CC4)c2CN1C(=O)Nc1ccc(F)c(Cl)c1 (single isomer, unassigned) [Example 8, N-(3-chloro-4-fluorophenyl)-3-{6,6-difluoro-4-azaspiro[2.4]heptane-4-carbonyl}-6-methyl-2H,4H,5H,6H,7H-pyrazolo[4,3-c]pyridine-5-carboxamide]",< 1 µM
2,"CN(C(=O)c1n[nH]c2c1CN(C(=O)Nc1ccc(F)c(Cl)c1)CC2)C1(COC(F)F)CC1 [Example 1, N5-(3-chloro-4-fluorophenyl)-N3-{1-[(difluoromethoxy)methyl]cyclopropyl}-N3-methyl-1H,4H,5H,6H,7H-pyrazolo[4,3-c]pyridine-3,5-dicarboxamide]",< 1 µM
3,"COCC1(N(C)C(=O)c2n[nH]c3c2CN(C(=O)Nc2ccc(F)c(Cl)c2)CC3)CC1 [Example 2, N5-(3-chloro-4-fluorophenyl)-N3-[1-(methoxymethyl)cyclopropyl]-N3-methyl-1H,4H,5H,6H,7H-pyrazolo[4,3-c]pyridine-3,5-dicarboxamide]",< 1 µM
4,"CN(C(=O)c1n[nH]c2c1CN(C(=O)Nc1ccc(F)c(Cl)c1)CC2)C1(CO)CC1 [Example 3, N5-(3-chloro-4-fluorophenyl)-N3-[1-(hydroxymethyl)cyclopropyl]-N3-methyl-1H,4H,5H,6H,7H-pyrazolo[4,3-c]pyridine-3,5-dicarboxamide]",< 1 µM
5,"COCC1(N(C)C(=O)c2n[nH]c3c2CN(C(=O)Nc2ccc(F)c(C#N)c2)CC3)CC1 [Example 4, N5-(3-cyano-4-fluorophenyl)-N3-[1-(methoxymethyl)cyclopropyl]-N3-methyl-1H,4H,5H,6H,7H-pyrazolo[4,3-c]pyridine-3,5-dicarboxamide]",< 1 µM
6,"CC(C)OCC1(N(C)C(=O)c2n[nH]c3c2CN(C(=O)Nc2ccc(F)c(Cl)c2)CC3)CC1 [Example 5, N5-(3-chloro-4-fluorophenyl)-N3-methyl-N3-{1-[(propan-2-yloxy)methyl]cyclopropyl}-1H,4H,5H,6H,7H-pyrazolo[4,3-c]pyridine-3,5-dicarboxamide]",< 1 µM
7,"CCOCC1(N(C)C(=O)c2n[nH]c3c2CN(C(=O)Nc2ccc(F)c(Cl)c2)CC3)CC1 [Example 6, N5-(3-chloro-4-fluorophenyl)-N3-[1-(ethoxymethyl)cyclopropyl]-N3-methyl-1H,4H,5H,6H,7H-pyrazolo[4,3-c]pyridine-3,5-dicarboxamide]",< 1 µM
8,"O=C(Nc1ccc(F)c(Cl)c1)N1CCc2n[nH]c(C(=O)N3CC(F)(F)CC34CC4)c2C1 [Example 7, N-(3-chloro-4-fluorophenyl)-3-{6,6-difluoro-4-azaspiro[2.4]heptane-4-carbonyl}-2H,4H,5H,6H,7H-pyrazolo[4,3-c]pyridine-5-carboxamide]",< 1 µM
9,"CN(C(=O)c1[nH]nc2c1CN(C(=O)Nc1ccc(F)c(Cl)c1)CC2)C1(COC(=O)C2(N)CC2)CC1 [Example 10, (1-{-methyl5-[(3-chloro-4-fluorophenyl)carbamoyl]-2H,4H,5H, 6H,7H-pyrazolo[4,3-c]pyridine-3-amido}cyclopropyl)methyl 1-aminocyclopropane-1-carboxylate]",< 1 µM
10,"O=C(Nc1ccc(F)c(Cl)c1)N1CCc2n[nH]c(C(=O)N3CCCOCC34CC4)c2C1 [Example 11, N-(3-chloro-4-fluorophenyl)-3-{8-oxa-4-azaspiro[2.6]nonane-4-carbonyl}-2H,4H,5H,6H,7H-pyrazolo[4,3-c]pyridine-5-carboxamide]",< 1 µM
11,"O=C(Nc1ccc(F)c(Cl)c1)N1CCc2n[nH]c(C(=O)N3CCC(O)CC34CC4)c2C1 (stereo not shown) [Example 12, N-(3-chloro-4-fluorophenyl)-3-{7-hydroxy-4-azaspiro[2.5]octane-4-carbonyl}-2H,4H,5H,6H,7H-pyrazolo[4,3-c]pyridine-5-carboxamide]",< 1 µM

# Same assay, conditions: read-out: Cell Activity (EC50); HepAD38 cells, HBV DNA in supernatant at day 6, qPCR
row,SMILES,EC50
1,"CC1Cc2n[nH]c(C(=O)N3CC(F)(F)CC34CC4)c2CN1C(=O)Nc1ccc(F)c(Cl)c1 (single isomer, unassigned) [Example 9, N-(3-chloro-4-fluorophenyl)-3-{6,6-difluoro-4-azaspiro[2.4]heptane-4-carbonyl}-6-methyl-2H,4H,5H,6H,7H-pyrazolo[4,3-c]pyridine-5-carboxamide]",< 1 µM
